Test results: PubChem BioAssay AID1949 (Southern Research Institute, 2009)
≈ marks a conversion by molar mass, not a printed value. Results filed as inconclusive are left out. Calls of active or inactive are those of the source. How the calls were made is not given here.

What follows are compounds tested on M. tuberculosis H37Rv growth inhibition (assay: Mycobacterium tuberculosis H37Rv growth inhibition, cell based, confirmatory dose response (AID 1949);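 further: bacteria grown 7 days with compound before Alamar blue readout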).

Row | Structure (SMILES) | IC50
1 | COc1ccc(NC(=O)CC23CC4CC(CC(C4)C2)C3)cc1Cl | 3.05 µg/mL (≈ 9.14 µM)
2 | CCOC(=O)c1c(-c2cccs2)csc1NC(=O)c1cc2ccccc2oc1=O | 4.76 µg/mL (≈ 11.2 µM)
3 | CSc1ccc(/C=C/c2nc(-c3ccccc3O)n[nH]2)cc1 | 4.5 µg/mL (≈ 14.5 µM)
4 | OC(CN1CCCCCC1)CN1c2ccccc2Sc2ccccc21 (configuration not stated) | 9.1 µg/mL (≈ 25.7 µM)
5 | Cc1sc2ncnc(N3CCN(CCOc4ccc(Cl)cc4)CC3)c2c1C | > 50 µg/mL (inactive)
6 | CCCS(=O)(=O)c1nnnn1-c1cccc(OC)c1 | 0.65 µg/mL (≈ 2.3 µM)
7 | Cc1cccc(NC(=S)NCCN2CCN(c3ccc(F)c(Cl)c3)CC2)c1C | 2.79 µg/mL (≈ 6.63 µM)
8 | Oc1ccc(CNc2ccccc2O)cc1 | 1.02 µg/mL (≈ 4.74 µM)
9 | COc1cc(CNC23CC4CC(CC(C4)C2)C3)ccc1OCc1ccccc1 | > 50 µg/mL (inactive)
10 | CCN(c1ccccc1)c1ccc([N+](=O)[O-])c2nonc12 | 0.17 µg/mL (≈ 0.598 µM)
11 | Clc1cccc(Nc2nc(NCc3ccco3)c3ccccc3n2)c1 | 1.05 µg/mL (≈ 2.99 µM)
12 | O=S(=O)(Nc1cc(Sc2cccc3cccnc23)c(O)c2ccccc12)c1ccccc1 | 0.18 µg/mL (≈ 0.393 µM)
13 | C#CCOc1c(Cl)cc(/C=C/[N+](=O)[O-])cc1OC | 29.4 µg/mL (≈ 110 µM)
14 | CC(Nc1nc(N2CCCCC2)nc2ccccc12)c1ccccc1 (configuration not stated) | 2.29 µg/mL (≈ 6.89 µM)
15 | CCC(C)c1ccccc1OCCCNC1CCCC1 (configuration not stated) | 8.81 µg/mL (≈ 32 µM)
16 | Cc1nn(-c2nc3ccccc3[nH]2)c(N)c1-c1ccccc1 | 0.43 µg/mL (≈ 1.49 µM)
17 | O=C(CCN1C(=O)C2C3C=CC(C4CC34)C2C1=O)Oc1cccc2cccnc12 (configuration not stated) | 1.46 µg/mL (≈ 3.76 µM)
18 | Cc1cc(C)c2c(N)c3cccc(C)c3nc2n1 | > 50 µg/mL (inactive)
19 | O=C1c2cccc3cccc(c23)C(=O)N1CCN1CCN(CC(O)COCc2ccc(Cl)cc2)CC1 (configuration not stated) | 3.05 µg/mL (≈ 6 µM)

Row | Structure (SMILES) | IC50
20 | CCOc1ccc(-c2[nH]ncc2-c2ccccc2)c(O)c1C | 4.39 µg/mL (≈ 14.9 µM)
21 | Cc1ccc(C(=O)Nc2ccc(C(F)(F)F)cc2)s1 | 4.67 µg/mL (≈ 16.4 µM)
22 | Cc1ccc(-c2nc(Nc3ccc(O)cc3)c3ccccc3n2)cc1 | 2.14 µg/mL (≈ 6.54 µM)
23 | Cc1c(Cl)c(C(F)(F)F)nn1CCCNC(=S)NCc1ccc(Cl)cc1 | 11.2 µg/mL (≈ 26.2 µM)
24 | FC(F)(F)c1nnc2n1Nc1nc3ccccc3nc1S2 | 4.52 µg/mL (≈ 14.6 µM)
25 | CC(NS(=O)(=O)c1cccc(Cl)c1)C(=O)Nc1ccc(Br)cc1F (configuration not stated) | 3 µg/mL (≈ 6.89 µM)
26 | O=C(CN1CCN(Cc2ccccc2)CC1)Nc1ccc([N+](=O)[O-])cc1C(=O)c1ccccc1 | 2.78 µg/mL (≈ 6.06 µM)
27 | CCOC(=O)c1ccc(NC(=S)Nc2cccc([N+](=O)[O-])c2)cc1 | 0.23 µg/mL (≈ 0.666 µM)
28 | N#Cc1ccc(-c2ccc(OCC(=O)Nc3cccnc3)cc2)cc1 | < 0.1 µg/mL
29 | O=C(Oc1ccc(Cl)cc1)c1sc2ccccc2c1Cl | 24.2 µg/mL (≈ 74.9 µM)
30 | N#Cc1ccc(-c2ccc(OCC(N)=O)cc2)cc1 | < 0.1 µg/mL
31 | O=C(Oc1cccc2cccnc12)C(Cc1ccccc1)N1C(=O)C2C3CCC(C3)C2C1=O (configuration not stated) | 2.76 µg/mL (≈ 6.27 µM)
32 | CCC(=O)NC(=S)Nc1ccc(NC(=O)c2cc(I)ccc2Cl)cc1 | 0.43 µg/mL (≈ 0.882 µM)
33 | c1cc2[nH]onc2c2c3c(nc12)CCCC3 | 8.28 µg/mL (≈ 38.8 µM)
34 | Cc1ccc(Cl)cc1NC(=O)CC(O)(C(F)(F)F)C(F)(F)F | 7.04 µg/mL (≈ 20.1 µM)
35 | C=CS(=O)c1sc(Cl)c(N2CCOCC2)c1[N+](=O)[O-] (configuration not stated) | 5.77 µg/mL (≈ 17.9 µM)
36 | Cc1occc1C(=O)Nc1sc(Cc2ccccc2)cc1C(N)=O | > 50 µg/mL (inactive)
37 | COC(=O)COc1ccc2c(-c3cccc([N+](=O)[O-])c3)cc(=O)oc2c1 | 0.34 µg/mL (≈ 0.957 µM)
38 | COc1ccc(OCC(=O)N=Nc2c(O)[nH]c3c(Br)cc(C)cc23)c(Br)c1 | 16.7 µg/mL (≈ 33.6 µM)

Row | Structure (SMILES) | IC50
39 | O=C(CCN1CCC(c2ccccc2)C1)c1ccco1 (configuration not stated) | > 50 µg/mL (inactive)
40 | CCOc1cccc2cc(-c3nc4ccc(C)cc4[nH]3)c(=O)oc12 | < 0.1 µg/mL
41 | Clc1ccc(C2=CC(c3ccc(Cl)cc3)n3nnnc3N2)cc1 (configuration not stated) | 2.07 µg/mL (≈ 6.01 µM)
42 | COc1ccccc1C(=O)NNC(=S)NC(=O)C1CCCCC1 | 3.02 µg/mL (≈ 9 µM)
43 | O=C(COc1ccc(Br)cc1)Nc1ccccc1F | 29.5 µg/mL (≈ 91.1 µM)
44 | CCOC(=O)c1c(NC(=O)COc2ccc(C(C)C)cc2)sc2c1CCC2 | 2.77 µg/mL (≈ 7.15 µM)
45 | CCOC(=O)C1CCN(C2=NC(=O)/C(=C\c3ccc(Cl)cc3Cl)S2)CC1 | 0.41 µg/mL (≈ 0.992 µM)
46 | COc1ccc(C(=O)CCNc2cccc(C)c2)cc1 | 8.33 µg/mL (≈ 30.9 µM)
47 | Cc1cccc(C(C)(C)C)c1OCCn1ccnc1 | 8.23 µg/mL (≈ 31.9 µM)
48 | CCCc1ccc(OC(=O)c2ccc(OC)c(OC)c2)cc1 | 2.37 µg/mL (≈ 7.89 µM)
49 | O=C(Nc1ccccc1N1CCCC1)c1ccc(-c2cccc(Cl)c2)o1 | 6.01 µg/mL (≈ 16.4 µM)
50 | Cc1sc2ncn(C(C)C(=O)OC3CCCCC3)c(=O)c2c1C (configuration not stated) | 1.11 µg/mL (≈ 3.32 µM)
51 | Cc1ccccc1NC(=O)C(Cc1ccccc1)NC(=O)c1ccccc1 (configuration not stated) | 37.5 µg/mL (≈ 105 µM)
52 | CCN(CC)c1ccc(NC(=O)C23CC4CC(CC(C4)C2)C3)cc1 | > 50 µg/mL (inactive)
53 | COC(=O)COc1ccc(NC(=O)COc2ccc(C(C)(C)C)cc2)cc1 | 0.17 µg/mL (≈ 0.458 µM)
54 | O=[N+]([O-])c1ccccc1C1Nc2ccc(Cl)cc2C2C=CCC21 (configuration not stated) | 10.5 µg/mL (≈ 32.3 µM)
55 | CCc1ccc(Oc2coc3cc(OC(C)C(=O)OC)ccc3c2=O)cc1 (configuration not stated) | 3.05 µg/mL (≈ 8.28 µM)
56 | S=C(NCCc1c[nH]c2ccccc12)Nc1ccc(Nc2ccccc2)cc1 | 2.81 µg/mL (≈ 7.27 µM)
57 | O=C(NCCCn1ccnc1)c1cc(-c2ccc(Br)cc2)nc2ccccc12 | 9.43 µg/mL (≈ 21.7 µM)
